{"source": "patent US12091683B2", "about": "“Method for producing platelets, method for producing platelet product, and method for producing blood product” (MEGAKARYON CORPORATION, priority 2017, dated 2024)", "key": {"[1]": {"test_system": "platelets produced from immortalized megakaryocyte cell lines (SeV2-MKCL)", "assay": "Bioactivity of platelets produced, MFIs of CD62p and PAC-1 by flow cytometer", "format": "cell-based, human", "description": "The bioactivity of platelets obtained in Example 1(2) was measured using a flow cytometer. Specifically, 900 μL of diluent was added to a 1.5-mL microtube, and 100 μL of culture solution after platelet production was added and mixed. Then, 200 μL of obtained solution was poured into a FACS tube, stained by adding the labeled antibody shown below, and the MFIs of CD62p and PAC-1 in platelets were analyzed using the flow cytometer. The same analysis was also performed using the flow cytometer in NC, and then the increase percentage of the MFIs of CD62p and PAC-1 in the respective samples were calculated with reference to the MFIs of CD62p and PAC-1 in NC.\nFIGS. 2A and 2B are graphs each showing the increase percentage of MFIs of CD62p and PAC-1. […] In addition, the expression levels of CD62p and PAC-1 were increased in a concentration-dependent manner.\nThe increase percentages of MFIs of CD62p and PAC-1 were calculated in the same manner as in Example 1(3) except that platelet was produced using a platelet production medium being added with cysteine at a predetermined concentration (1, 5, or 10 mmol/L) instead of glycine. The platelet production medium contains 0.6 to 0.8 mmol/L cysteine. Therefore, the concentration of the cysteine in the platelet production medium after being added with cysteine are about 2 to about 11 mmol/L. As a control, the increase percentage of MFIs of CD62p and PAC-1 was calculated in the same manner except that no cysteine was added."}, "[2]": {"test_system": "immortalized megakaryocyte cell line from iPS cells induced from SeV2-MKCL", "details": "high-density culture (×4), compared with control in high-density culture", "from_the_text": "iPS cells were induced by introducing c-MYC, OCT3/4, SOX2, and KLF4 into immortalized megakaryocyte cell line (SeV2-MKCL) obtained in Example 1(1-6) by the Sendai virus vector according to the method described in WO 2010/134526. Next, immortalized megakaryocyte cell lines were induced in the same manner as in Examples 1(1-1) to (1-6) except that the induced iPS cells were used instead of the human iPS cells (TKDN SeV2). Further, as to the obtained immortalized megakaryocyte cell line, the number of platelets was counted and the platelet concentration was calculated in the same manner as in Example 1(2). Then, the P/M ratio was calculated based on the megakaryocyte cell density (dissemination density) at the start of production of platelets and the platelet concentration."}, "[3]": {"test_system": "immortalized megakaryocyte cell line from human iPS cells (NIH8)", "details": "4.0×10^5 (×4) or 6.0×10^5 cells/mL (×6), 5 days, glycine added, compared with control in high-density culture, FIG. 6B", "description": "(§1) Immortalized megakaryocyte cell lines were induced in the same manner as in Examples 1(1-1) to (1-6) except that human iPS cells (NIH5 and NIH8) were used instead of the human iPS cells (TKDN SeV2). As to the obtained immortalized megakaryocyte cell line, the number of platelets was counted and the platelet concentration was calculated in the same manner as in Example 1(2) except that the cell dissemination density was set to 4.0×10^5 cells/mL (×4) or 6.0×10^5 cells/mL (×6) and the culture was performed for 5 days. As a control, the platelet concentration was calculated in the same manner except that the cell dissemination density was set to 1.0×10^5 cells/mL (×1), 4.0×10^5 cells/mL (×4), or 6.0×10^5 cells/mL (×6), and the glycine-non-added platelet production medium was used.\n(§2) FIGS. 6A and 6B are graphs each showing the platelet concentration. […] In FIGS. 6A and 6B, the horizontal axis indicates the condition of cell dissemination density and glycine concentration, and the vertical axis indicates the platelet concentration."}, "[4]": {"test_system": "immortalized megakaryocyte cell line from human iPS cells (NIH5)", "details": "4.0×10^5 (×4) or 6.0×10^5 cells/mL (×6), 5 days, glycine added, compared with control in high-density culture, FIG. 6A", "description": "as §1, §2"}, "[5]": {"test_system": "immortalized megakaryocyte cell lines (SeV2-MKCL)", "from_the_text": "The forced expression was canceled by performing culturing in a medium not containing DOX. Specifically, the immortalized megakaryocyte cell lines (SeV2-MKCL) obtained using the method (1) were washed twice with PBS (−), and suspended in a following platelet producing medium. The cell dissemination density was set to 4.0×10^5 cells/mL (×4).\nThe platelet producing medium was obtained by adding the components listed below to a basal medium IMDM (concentration means final concentration)."}, "[6]": {"test_system": "platelets produced from immortalized megakaryocyte cell lines (SeV2-MKCL)", "details": "10 mmol/L glycine and 20 U/mL heparin added; dissemination density ×1, ×2, ×3, ×4, ×8; compared with controls; FIG. 3", "method": "In addition, the deterioration state of platelets obtained was evaluated based on the positive rate of Annexin V. Specifically, in measurement of the Annexin V positive rate in platelets, 100 μL of the culture solution after platelet production was poured into a FACS tube, and the solution was stained by adding the following labeled antibody and protein, diluted to 5 times with an Annexin V binding buffer (BD Biosciences) immediately before flow cytometer analysis, and then subjected to analysis.\n1.0 μL anti-CD41a antibody APC label (Bio Legend 303710)\n1.0 μL anti-CD42b antibody PE label (Bio Legend 303906)\n5 μL Annexin V FITC label (BD Biosciences 556419)"}, "[7]": {"details": "high-density culture, added cysteine 1, 5 or 10 mmol/L, compared to control (NC) without cysteine, FIG. 4"}, "[8]": {"details": "high-density culture (×4), added glycine 5, 10, 20, 40 mmol/L, compared to control without glycine, FIGS. 2A, 2B"}}}
{"smiles": "N[C@@H](CS)C(=O)O", "note": "[cysteine]", "values": [{"measurement": "expression level of CD62p (increase percentage of MFI)", "setting": "[1]; [7]", "value": "increased at all cysteine concentrations"}, {"measurement": "expression level of PAC-1 (increase percentage of MFI)", "setting": "[1]; [7]", "value": "increased at all cysteine concentrations"}]}
{"smiles": "NCC(=O)O", "note": "[glycine]", "values": [{"measurement": "expression level of CD62p (increase percentage of MFI)", "setting": "[1]; [8]", "value": "increased at all glycine concentrations"}, {"measurement": "expression level of PAC-1 (increase percentage of MFI)", "setting": "[1]; [8]", "value": "increased at all glycine concentrations"}, {"measurement": "ability of megakaryocyte to produce platelets (P/M ratio)", "setting": "[2]; any glycine concentration, FIG. 5A", "value": "improved"}, {"measurement": "platelet concentration", "setting": "[2]; FIG. 5B", "value": "increased at any glycine concentration"}, {"measurement": "platelet concentration", "setting": "[3]", "value": "increased at any dissemination density"}, {"measurement": "platelet concentration", "setting": "[4]", "value": "increased at any dissemination density"}, {"measurement": "number of platelets", "setting": "[5]; 4.0×10^5 cells/mL (×4), added glycine 1, 5, 10, 20 or 40 mmol/L, 6 days, compared with high-density culture using glycine-non-added medium, FIGS. 1A, 1B", "value": "increased at all concentrations"}, {"measurement": "ability of megakaryocyte to produce platelets", "setting": "[5]; glycine concentration at the start of production of platelets 11 to 31 mmol/L or 11 to 21 mmol/L, high-density culture (×4)", "value": "further improved"}, {"measurement": "deterioration of platelet (percentage of Annexin V-positive cells)", "setting": "[6]", "value": "suppressed"}, {"measurement": "number of platelets", "setting": "[6]", "value": "increased"}]}
